“Also recorded” adds a separate entry of the source.
Tests used:
[1] = system: porcine pancreatic lipase, PPL (crude extract); assay: OPTS assay: enzymatic hydrolysis of OPTS by PPL; format: biochemical
Experimental: An aqueous solution of commercially purchased porcine pancreatic lipase, PPL, was prepared (Sigma-Aldrich, US; 100-500 Units/mg protein). According to the manufacturer, this powder mainly contains triacylglycerol lipase, but since it is a homogenised powder from freeze-dried porcine pancreas (crude extract), it is likely to further contain other carboxylesterases and lipases. These enzymes hydrolyse fatty acid esters and this extract was therefore selected for functional tests.
To record the reaction kinetics of the substrate OPTS with PPL, an aqueous 10 mg/mL PPL solution was prepared by adding 10 mg PPL to 1 mL H2O. The suspension was vortexed for 2 min and centrifuged at 14,000×g for 5 min before the supernatant was removed.
A reaction mixture of 75 μL AMT buffer (pH=7), 165 μL H2O and 30 μL of an aqueous 10 mg*mL-1 PPL solution was started with the addition of 30 μL of a 250 μM OPTS solution. The increase in fluorescence was recorded over 30 min with 15 s measuring intervals (n=2). As control (blank) served a preparation without PPL (only with H2O). […] The calculated reaction rate is 2.89±0.08*10-5 units (μmol*min-1). […]
Further inhibition of the non-ionic detergent polysorbate 20 (Tween 20) was tested. […] No inhibition was observed until 50 μg/ml at pH 7.0, but higher concentrations reduced the fluorescence signal (FIG. 5B). […]

[2] = derivable from literature; cited from earlier work
[3] = system: contaminating host cell proteins with hydrolase (carboxylesterase) activity in antibody solutions; assay: OPTS assay on antibody preparations (drug substance samples); format: biochemical, CHO K1 or DG44 cells; settings: orlistat 10 μM, PMSF 1 mM, EDTA 10 mM; all 9 antibody samples
Excerpt: In order to be able to determine the enzymatic activity, a substrate, 1-octanoyloxy-pyrene-3,6,8-trisulfonic acid trisodium salt (OPTS), was chosen. Its hydrolytic product, 1-hydroxypyrene-3,6,8-trisulfonic acid trisodium salt (HPTS), can be detected by fluorescence spectroscopy. The change in the fluorescence signal over time is directly related to the change in the concentration of free fluorophore. The conversion was made possible by setting up a calibration curve with a subsequent linear fit (R^2≥0.99). The experiments of the kinetics measurements with the OPTS/4-MUD substrates assay were performed in duplicates. The reaction mixture without the protein of interest, which served as the respective control, was subtracted from the protein-containing batch. The buffer used for OPTS measurements (hydrophilic substrate) contained 0.3 M HOAc, 0.3 M MES, 0.6 M TRIS and 0.6 M NaCl (4×AMT buffer; acetate, MES, TRIS). For 4-MUD substrate measurements (lipophilic substrate) 0.04 M CHAPS was added in addition. […] All measurements were carried out in multiwell plates with a preparation volume of 300 μL (75 μL 4×AMT buffer, 30 μL substrate, 75 μL enzyme-containing solution, x μL additive, 300 μL ad. H2O) Unless otherwise stated, all fluorescence spectroscopic measurements were performed using 96-well, clear-bottom, non-binding plates (Greiner, Austria) on a SpectraMax M3 PlateReader (Molecular Device, USA) and recorded using SoftMax Pro 7.0.3 software (Molecular Device, USA). […] For evaluation, the detected fluorescence signal for a reaction mix without protein of interest (control) was subtracted from the reaction mix with protein of interest (e.g. DS). Hydrolysis of the substrate has been measured by detecting the fluorescence intensity of the released chromophore (4-MU or HPTS) immediately following mixing in real-time for a few minutes up to 5 hours depending on fluorescence intensity. The changes in the fluorescence signal over time were subsequently converted to hydrolytic activity using previously established calibration curves with a linear fit (R^2≥0.99). […]

[4] = system: contaminating host cell proteins with hydrolytic (lipase) activity in antibody solutions; assay: 4-MUD assay on antibody preparations (drug substance samples); format: biochemical, CHO K1 or DG44 cells; settings: all 9 antibody samples; for effect of inhibitor on hydrolytic activity in the 9 antibody samples, 4-MUD assay: orlistat 10 μM, PMSF 1 mM, EDTA 10 mM
Excerpt: In order to be able to determine the enzymatic activity, a substrate, 1-octanoyloxy-pyrene-3,6,8-trisulfonic acid trisodium salt (OPTS), was chosen. Its hydrolytic product, 1-hydroxypyrene-3,6,8-trisulfonic acid trisodium salt (HPTS), can be detected by fluorescence spectroscopy. The change in the fluorescence signal over time is directly related to the change in the concentration of free fluorophore. The conversion was made possible by setting up a calibration curve with a subsequent linear fit (R^2≥0.99). The experiments of the kinetics measurements with the OPTS/4-MUD substrates assay were performed in duplicates. The reaction mixture without the protein of interest, which served as the respective control, was subtracted from the protein-containing batch. The buffer used for OPTS measurements (hydrophilic substrate) contained 0.3 M HOAc, 0.3 M MES, 0.6 M TRIS and 0.6 M NaCl (4×AMT buffer; acetate, MES, TRIS). For 4-MUD substrate measurements (lipophilic substrate) 0.04 M CHAPS was added in addition. The buffer (AMT) was prepared in four-fold concentration (4×AMT) and was added at 25% (v/v) to the reaction mix. All measurements were carried out in multiwell plates with a preparation volume of 300 μL (75 μL 4×AMT buffer, 30 μL substrate, 75 μL enzyme-containing solution, x μL additive, 300 μL ad. H2O) Unless otherwise stated, all fluorescence spectroscopic measurements were performed using 96-well, clear-bottom, non-binding plates (Greiner, Austria) on a SpectraMax M3 PlateReader (Molecular Device, USA) and recorded using SoftMax Pro 7.0.3 software (Molecular Device, USA). The OPTS assay measurements were typically taken at 25° C., λex=403 nm and λem=512 nm and the 4-MUD assay measurements were taken at 25° C., λex=330 nm and λem=450 nm. For evaluation, the detected fluorescence signal for a reaction mix without protein of interest (control) was subtracted from the reaction mix with protein of interest (e.g. DS). Hydrolysis of the substrate has been measured by detecting the fluorescence intensity of the released chromophore (4-MU or HPTS) immediately following mixing in real-time for a few minutes up to 5 hours depending on fluorescence intensity. The changes in the fluorescence signal over time were subsequently converted to hydrolytic activity using previously established calibration curves with a linear fit (R^2≥0.99).
The target concentration of OPTS was 25 μM and the target concentration of 4-MUD was 30 μM. […]
(§1) To generate pH profiles of the protein solutions, kinetic measurements were carried out as described above at the indicated pH value. The added AMT buffer was adjusted to the pH indicated in a range of pH 4-8 (0.5 steps) and the kinetics were recorded for each pH value.

[5] = system: purified commercially available lipase (lysosomal lipase); assay: 4-MUD assay on a purified commercially available lipase; format: biochemical; settings: 10 μM orlistat, 1 mM PMSF, 10 mM EDTA; pH 5.5
Experimental: The target concentration of OPTS was 25 μM and the target concentration of 4-MUD was 30 μM. For preparing a master mix, 4×AMT buffer was mixed with the appropriate volume of H2O in a Falcon tube. The dialysed antibody (Ab) preparation samples (drug substance) or control solutions (75 μl) were transferred to 96 well plates. Optional inhibitors (10 μM orlistat, 1 mM PMSF and 10 mM EDTA) were added to the master mix comprising 4×AMT buffer and water and substrate (3 μl/sample 3 mM 4-MUD in DMSO or […] 250 μM OPTS in H2O, aliquoted and frozen). The 4-MUD substrate was stored at a concentrated stock solution comprising 3 mM 4-methylumbelliferyl decanoate (4-MUD; FM25973, Carbosynth) in DMSO resulting in a 100× stock solution for use comprising […] in DMSO. The 250 μM OPTS stock solution was prepared in H2O, aliquoted and frozen until use. […] The reaction was then started by adding the master mix (reaction solution) to the protein solution or control solution, respectively. The measurement was started immediately. The measuring time was 30 min and the measuring intervals 15 s. Stock solutions of the inhibitors were used as follows: 300 μM orlistat (Sigma-Aldrich, USA) in DMSO, 100 mM PMSF (Roth, Germany) in isopropanol and 500 mM EDTA (Sigma-Aldrich, USA) in H2O.
as §1
Further, a purified commercially available lipase with unknown substrate specificity was analysed using the 4-MUD and OPTS assay. First, hydrolysis of both soluble (OPTS) and hydrophobic (4-MUD) carboxyl esters, as well as the influence of orlistat, PMSF and EDTA on the hydrolytic activity of the lipase were investigated.
Furthermore, the lipase was tested for its pH dependence in the OPTS and 4-MUD substrate assays. For this purpose, the hydrolytic activity was examined at pH=4-8.

| influence of inhibitors on hydrolytic activity of the lipase, 4-MUD substrate [5] | SMILES | CMC [2] | effect of inhibitor on hydrolytic activity in the 9 antibody samples, OPTS assay [3] | effect of inhibitor on hydrolytic activity in the 9 antibody samples, 4-MUD assay [4] | further results |
| --- | --- | --- | --- | --- | --- |
| – | C[C@H](CCC(=O)NCCC[N+](C)(C)CCCS(=O)(=O)[O-])[C@H]1CC[C@H]2[C@@H]3[C@H](O)C[C@@H]4C[C@H](O)CC[C@]4(C)[C@H]3C[C@H](O)[C@]12C [CHAPS, 3-[(3-cholamidopropyl)dimethylammonio]-1-propanesulfonate] | about 6 mM | – | – | activity in the presence of 10 mM CHAPS ([1]; 1 mg*mL-1 PPL, 25 μM OPTS, AMT pH 7, 10 mM CHAPS): 6.16*10^−7 units |
| – | C[C@H](CCC(=O)NCCC[N+](C)(C)CC(O)CS(=O)(=O)[O-])[C@H]1CC[C@H]2[C@@H]3[C@H](O)C[C@@H]4C[C@H](O)CC[C@]4(C)[C@H]3C[C@H](O)[C@]12C (stereo partly drawn) [CHAPSO, 3-([3-Cholamidopropyl)dimethylammonio]-2-hydroxy-1-propanesulfonate] | about 8 mM | – | – | – |
| only minor effects | O=C(O)CN(CCN(CC(=O)O)CC(=O)O)CC(=O)O [EDTA] | – | Neither orlistat, nor PMSF or EDTA significantly reduced; also recorded: no inhibition | hardly any inhibition; also recorded: no inhibition | – |
| – | CCCCCCCCCCCC(=O)OCCOCCOCCOCCOCCOCCOCCOCCOCCOCCOCCOCCOCCOCCOCCOCCOCCOCCOCCOCCOCC(OCCOCCOCCOCCOCCOCCOCCOCCOCCOCCOCCOCCOCCOCCOCCOCCOCCOCCOCCOCCO)C1OCC(OCCOCCOCCOCCOCCOCCOCCOCCOCCOCCOCCOCCOCCOCCOCCOCCOCCOCCOCCOCCO)C1OCCOCCOCCOCCOCCOCCOCCOCCOCCOCCOCCOCCOCCOCCOCCOCCOCCOCCOCCOCCO (stereo not drawn) [Polysorbate 20, polyoxyethylene (20) sorbitan monolaurate] | – | – | – | concentration until which no inhibition was observed ([1]; PPL, pH 7.0, target concentrations 200 μg/mL to 0.098 μg/mL tested): ≤ 50 µg/mL |
| – | CCCCCCCCCCCC[N+](C)(C)CCCS(=O)(=O)[O-] [Zwittergent 3-12, n-Dodecyl-N,N-dimethyl-3-ammonio-1-propanesulfonate] | 2 to 4 mM | – | – | – |
| almost completely inhibited | CCCCCCCCCCC[C@@H](C[C@@H]1OC(=O)[C@H]1CCCCCC)OC(=O)[C@H](CC(C)C)NC=O [orlistat] | – | Neither orlistat, nor PMSF or EDTA significantly reduced | pronounced inhibition; also recorded: strong inhibition | residual activities with orlistat ([4]; 10 μM orlistat, % of hydrolysis activity without inhibitor): 18-21% |

| SMILES | influence of inhibitors on hydrolytic activity of the lipase, 4-MUD substrate [5] | CMC [2] | effect of inhibitor on hydrolytic activity in the 9 antibody samples, OPTS assay [3] | effect of inhibitor on hydrolytic activity in the 9 antibody samples, 4-MUD assay [4] | further results |
| --- | --- | --- | --- | --- | --- |
| O=S(=O)(F)Cc1ccccc1 [PMSF] | only minor effects | – | Neither orlistat, nor PMSF or EDTA significantly reduced | sight inhibition | – |

From patent publication US20250207175A1, “METHOD FOR DETECTING CONTAMINATING CARBOXYLESTERASE ACTIVITY” (Boehringer Ingelheim International GmbH, priority 2022, published 2025)
